{"source": "patent US12559529B2", "about": "“NPY2 receptor agonists” (Boehringer Ingelheim International GmbH, priority 2019, dated 2026)", "key": {"[1]": {"molecular_target": "T1, Human Neuropeptide Y2 Receptor (Homo sapiens, UniProt P49146)", "T1 construct": "purchased CHEMICON HTS066M", "T1 sequence (P49146 1-381)": "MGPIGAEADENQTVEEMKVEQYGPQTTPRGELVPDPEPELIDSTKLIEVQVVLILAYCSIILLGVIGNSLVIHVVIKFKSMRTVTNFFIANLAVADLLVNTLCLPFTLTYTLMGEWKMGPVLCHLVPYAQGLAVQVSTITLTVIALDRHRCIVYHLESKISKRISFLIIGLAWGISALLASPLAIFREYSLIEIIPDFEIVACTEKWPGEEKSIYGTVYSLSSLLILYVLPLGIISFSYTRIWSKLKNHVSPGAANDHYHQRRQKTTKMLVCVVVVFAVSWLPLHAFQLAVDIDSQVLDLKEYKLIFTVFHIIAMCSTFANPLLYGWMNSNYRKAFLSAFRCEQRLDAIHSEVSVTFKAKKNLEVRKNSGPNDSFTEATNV", "assay": "Radioligand binding competition assay (RLB)", "details": "Table 3; human 125I-PYY (1-36) 0.02 nM, Y2 receptor membranes; read-out: Ki", "how_it_was_run": "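Filtration format; Y2R membrane prep 0.5 μg/well; buffer 50 mM HEPES/5 mM MgCl2/1 mM CaCl2/0.2% ovalbumin pH 7.4; 2 h RT, shaking. Harvest on PEI-soaked GF/C, ice-cold HEPES/500 mM NaCl washes, scintillation count. IC50 by nonlinear fit.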"}, "human NPY1 receptor": {"molecular_target": "T2, human NPY1 receptor (Homo sapiens, UniProt P25929)", "T2 construct": "expressed in transfected cells; host or cells: CHO-K1", "T2 sequence (P25929 1-384)": "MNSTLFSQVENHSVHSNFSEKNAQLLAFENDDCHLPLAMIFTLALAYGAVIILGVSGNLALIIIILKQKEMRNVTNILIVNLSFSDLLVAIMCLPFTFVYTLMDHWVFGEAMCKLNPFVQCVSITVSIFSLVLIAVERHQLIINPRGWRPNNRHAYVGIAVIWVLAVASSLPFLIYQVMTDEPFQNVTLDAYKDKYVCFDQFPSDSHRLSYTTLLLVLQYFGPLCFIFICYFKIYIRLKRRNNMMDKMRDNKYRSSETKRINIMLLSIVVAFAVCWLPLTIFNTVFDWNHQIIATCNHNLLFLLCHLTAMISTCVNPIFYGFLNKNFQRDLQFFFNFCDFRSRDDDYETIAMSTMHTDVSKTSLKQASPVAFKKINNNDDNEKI", "assay": "HTRF cAMP Gi assay, hY1R", "type": "cell-based", "details": "Table 4; CHO-K1 cells", "protocol": "(§1) Briefly, the production of intracellular cAMP will generate a competition between unlabeled cAMP and exogenously added d2-cAMP for anti-cAMP antibodies conjugated to cryptate. CHO-K1 cells stably expressing the human NPY1, NPY2, NPY4 and NPY5 receptors were used with the cells brought to life from a frozen stock immediately before assay performance. 2000 cells per well were applied for all four NPY receptor subtype assays. A 384-well format was used applying a total volume of 20 μl using 5 μl cells, 2.5 μl peptide agonist, 2.5 μl forskolin and 5 μl of each of the fluorophores. […] Concentration-response evaluation of compounds was performed with 11 concentrations of agonist peptides (covering 3 decades). EC50 values were calculated by nonlinear regression using sigmoid concentration-response with variable slope."}, "human NPY4 receptor": {"molecular_target": "T3, human NPY4 receptor (Homo sapiens, UniProt P50391)", "T3 construct": "expressed in transfected cells; host or cells: CHO-K1", "T3 sequence (P50391 whole entry)": "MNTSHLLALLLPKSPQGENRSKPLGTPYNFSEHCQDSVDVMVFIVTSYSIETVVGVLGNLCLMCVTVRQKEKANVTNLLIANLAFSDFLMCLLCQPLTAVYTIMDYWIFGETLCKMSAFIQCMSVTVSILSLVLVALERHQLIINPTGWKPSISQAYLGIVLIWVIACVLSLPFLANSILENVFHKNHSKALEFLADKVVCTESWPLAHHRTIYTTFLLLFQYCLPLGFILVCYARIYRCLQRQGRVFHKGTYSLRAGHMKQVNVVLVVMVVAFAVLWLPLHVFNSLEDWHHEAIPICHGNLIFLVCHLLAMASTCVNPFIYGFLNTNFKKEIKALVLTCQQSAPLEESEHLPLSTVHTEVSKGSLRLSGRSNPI", "assay": "HTRF cAMP Gi assay, hY4R", "type": "cell-based", "details": "Table 4; CHO-K1 cells", "description": "(§2) The Homogenous Time Resolved fluorescence (HTRF) technology optimized for Gi coupled receptors has thoroughly been described in Cisbio cAMP Gi kit manual. Briefly, the production of intracellular cAMP will generate a competition between unlabeled cAMP and exogenously added d2-cAMP for anti-cAMP antibodies conjugated to cryptate. CHO-K1 cells stably expressing the human NPY1, NPY2, NPY4 and NPY5 receptors were used with the cells brought to life from a frozen stock immediately before assay performance. 2000 cells per well were applied for all four NPY receptor subtype assays. A 384-well format was used applying a total volume of 20 μl using 5 μl cells, 2.5 μl peptide agonist, 2.5 μl forskolin and 5 μl of each of the fluorophores. […] Concentration-response evaluation of compounds was performed with 11 concentrations of agonist peptides (covering 3 decades). EC50 values were calculated by nonlinear regression using sigmoid concentration-response with variable slope."}, "normal NMRI mice": {"test_system": "normal NMRI mice", "assay": "Effect on acute food intake in normal NMRI mice", "type": "in vivo", "details": "male NMRI mice, 10 nmol/kg subcutaneously once", "how_it_was_run": "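Male NMRI mice acclimatized in an HM-2 real-time food intake monitoring system, fasted 6 h before dark phase. Single subcutaneous dose of 10 nmol/kg peptide given 1 h before dark; n=7-8. Food intake expressed as % of vehicle group (50 mM phosphate pH7, 5% Mannitol).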"}, "human NPY2 receptor": {"molecular_target": "T4, human NPY2 receptor (Homo sapiens, UniProt P49146)", "T4 sequence (P49146 1-381)": "T1 sequence (P49146 1-381)", "assay": "HTRF cAMP Gi assay, hY2R", "protocol": "as §1"}, "human NPY5 receptor": {"molecular_target": "T5, human NPY5 receptor (Homo sapiens, UniProt Q15761)", "T5 sequence (Q15761 1-445)": "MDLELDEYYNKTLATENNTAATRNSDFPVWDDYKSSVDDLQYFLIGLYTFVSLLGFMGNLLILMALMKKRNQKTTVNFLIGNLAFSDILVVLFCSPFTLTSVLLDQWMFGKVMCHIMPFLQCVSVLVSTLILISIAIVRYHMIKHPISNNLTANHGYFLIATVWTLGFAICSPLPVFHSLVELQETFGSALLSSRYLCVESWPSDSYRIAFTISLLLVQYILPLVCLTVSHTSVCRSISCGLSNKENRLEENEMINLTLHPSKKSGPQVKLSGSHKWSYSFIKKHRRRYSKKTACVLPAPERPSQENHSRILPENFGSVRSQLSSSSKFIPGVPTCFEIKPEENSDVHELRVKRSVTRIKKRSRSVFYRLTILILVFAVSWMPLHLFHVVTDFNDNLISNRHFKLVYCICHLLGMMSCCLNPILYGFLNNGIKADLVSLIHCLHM", "assay": "HTRF cAMP Gi assay, hY5R", "description": "as §2"}}}
{"smiles": "CC(C)CC(=O)N[C@@H](C)C(=O)N1CCC[C@H]1C(=O)N[C@@H](CCC(=O)O)C(=O)N[C@@H](CCCCNC(=O)COCCOCCNC(=O)COCCOCCNC(=O)CC[C@H](NC(=O)CCCCCCCCCCCCCCCCC(=O)O)C(=O)O)C(=O)N1CCC[C@H]1C(=O)N[C@@H](CCC(=O)O)C(=O)N[C@@H](CCC(=O)O)C(=O)N[C@@H](CC(=O)O)C(=O)N[C@@H](C)C(=O)N[C@@H](CCC(=O)O)C(=O)N1CCC[C@H]1C(=O)N[C@@H](CCC(=O)O)C(=O)N[C@@H](CCC(=O)O)C(=O)N[C@@H](CC(C)C)C(=O)N[C@@H](CCC(N)=O)C(=O)N[C@@H](CCC(=O)O)C(=O)N[C@@H](Cc1ccc(O)cc1)C(=O)N[C@@H](Cc1ccc(O)cc1)C(=O)N[C@H](C(=O)N[C@@H](CO)C(=O)N[C@@H](CC(C)C)C(=O)N[C@@H](CCCNC(=N)N)C(=O)N[C@@H](Cc1c[nH]cn1)C(=O)N[C@@H](Cc1ccc(O)cc1)C(=O)N[C@@H](Cc1ccc(O)cc1)C(=O)N[C@@H](CC(N)=O)C(=O)N[C@@H](Cc1c[nH]c2ccccc12)C(=O)N[C@@H](CC(C)C)C(=O)N[C@H](C(=O)N[C@@H](CCCNC(=N)N)C(=O)N[C@@H](CCC(N)=O)C(=O)N[C@@H](CCCNC(=N)N)C(=O)N[C@@H](Cc1ccc(O)cc1)C(N)=O)[C@@H](C)O)C(C)C", "note": "[Compound 105, N{alpha-4}-(3-methylbutanoyl)-N{epsilon-7}-[2-(2-{2-[2-(2-{2-[(4S)-4-carboxy-4-(17-carboxyheptadecanamido)butanamido]ethoxy}ethoxy)acetamido]ethoxy}ethoxy)acetamido]-[4A,7K,9E,13E,18Q,19E,22V,28Y,30W,31L]hPYY (4-36)]", "values": [{"measurement": "Ki", "setting": "[1]", "value": 6.94, "unit": "nM"}, {"measurement": "EC50", "setting": "human NPY1 receptor", "value": "> 5000", "unit": "nM"}, {"measurement": "EC50", "setting": "human NPY4 receptor", "value": "> 5000", "unit": "nM"}, {"measurement": "Acute Food Intake 24 h [% vehicle]", "setting": "normal NMRI mice", "value": 72, "unit": "% vehicle"}, {"measurement": "EC50", "setting": "human NPY2 receptor", "value": 0.284, "unit": "nM"}, {"measurement": "EC50", "setting": "human NPY5 receptor", "value": "> 5000", "unit": "nM"}]}
{"smiles": "CC(C)CC(=O)N[C@@H](C)C(=O)N1CCC[C@H]1C(=O)N[C@@H](CCC(=O)O)C(=O)N[C@@H](CCCCNC(=O)COCCOCCNC(=O)COCCOCCNC(=O)CC[C@H](NC(=O)CCCCCCCCCCCCCCCCC(=O)O)C(=O)O)C(=O)N1CCC[C@H]1C(=O)N[C@@H](CCC(=O)O)C(=O)N[C@@H](CCC(=O)O)C(=O)N[C@@H](CC(=O)O)C(=O)N[C@@H](C)C(=O)N[C@@H](CO)C(=O)N[C@@H](CCC(=O)O)C(=O)N[C@@H](CCC(=O)O)C(=O)N[C@@H](CCC(=O)O)C(=O)N[C@@H](CC(C)C)C(=O)N[C@@H](CCC(N)=O)C(=O)N[C@@H](CCC(=O)O)C(=O)N[C@@H](Cc1ccc(O)cc1)C(=O)N[C@@H](Cc1ccc(O)cc1)C(=O)N[C@H](C(=O)N[C@@H](CO)C(=O)N[C@@H](CC(C)C)C(=O)N[C@@H](CCCNC(=N)N)C(=O)N[C@@H](Cc1c[nH]cn1)C(=O)N[C@@H](Cc1ccc(O)cc1)C(=O)N[C@@H](Cc1ccc(O)cc1)C(=O)N[C@@H](CC(N)=O)C(=O)N[C@@H](Cc1c[nH]c2ccccc12)C(=O)N[C@@H](CC(C)C)C(=O)N[C@H](C(=O)N[C@@H](CCCNC(=N)N)C(=O)N[C@@H](CCC(N)=O)C(=O)N[C@@H](CCCNC(=N)N)C(=O)N[C@@H](Cc1ccc(O)cc1)C(N)=O)[C@@H](C)O)C(C)C", "note": "[Compound 164, N{alpha-4}-(3-methylbutanoyl)-N{epsilon-7}-[2-(2-{2-[2-(2-{2-[(4S)-4-carboxy-4-(17-carboxyheptadecanamido)butanamido]ethoxy}ethoxy)acetamido]ethoxy}ethoxy)acetamido]-[4A,7K,9E,14E,18Q,19E,22V,28Y,30W,31L]hPYY (4-36)]", "values": [{"measurement": "Ki", "setting": "[1]", "value": 4.33, "unit": "nM"}, {"measurement": "EC50", "setting": "human NPY1 receptor", "value": "> 5000", "unit": "nM"}, {"measurement": "EC50", "setting": "human NPY4 receptor", "value": "> 5000", "unit": "nM"}, {"measurement": "Acute Food Intake 24 h [% vehicle]", "setting": "normal NMRI mice", "value": 64, "unit": "% vehicle"}, {"measurement": "EC50", "setting": "human NPY2 receptor", "value": 0.235, "unit": "nM"}, {"measurement": "EC50", "setting": "human NPY5 receptor", "value": "> 5000", "unit": "nM"}]}
{"smiles": "CC(C)CC(=O)N[C@@H](C)C(=O)N1CCC[C@H]1C(=O)N[C@@H](CCC(=O)O)C(=O)N[C@@H](CCCCNC(=O)COCCOCCNC(=O)COCCOCCNC(=O)CC[C@H](NC(=O)CCCCCCCCCCCCCCCCC(=O)O)C(=O)O)C(=O)N1CCC[C@H]1C(=O)N[C@@H](CCC(=O)O)C(=O)N[C@@H](CCC(=O)O)C(=O)N[C@@H](CC(=O)O)C(=O)N[C@@H](C)C(=O)N[C@@H](CCC(=O)O)C(=O)N1CCC[C@H]1C(=O)N[C@@H](CCC(=O)O)C(=O)N[C@@H](CCC(=O)O)C(=O)N[C@@H](CC(C)C)C(=O)N[C@@H](CCC(N)=O)C(=O)N[C@@H](CCCNC(=N)N)C(=O)N[C@@H](Cc1ccc(O)cc1)C(=O)N[C@@H](Cc1ccc(O)cc1)C(=O)N[C@H](C(=O)N[C@@H](CO)C(=O)N[C@@H](CC(C)C)C(=O)N[C@@H](CCCNC(=N)N)C(=O)N[C@@H](Cc1c[nH]cn1)C(=O)N[C@@H](Cc1ccc(O)cc1)C(=O)N[C@@H](Cc1ccc(O)cc1)C(=O)N[C@@H](CC(N)=O)C(=O)N[C@@H](Cc1c[nH]c2ccccc12)C(=O)N[C@@H](CC(C)C)C(=O)N[C@H](C(=O)N[C@@H](CCCNC(=N)N)C(=O)N[C@@H](CCC(N)=O)C(=O)N[C@@H](CCCNC(=N)N)C(=O)N[C@@H](Cc1ccc(O)cc1)C(N)=O)[C@@H](C)O)C(C)C", "note": "[Compound 188, N{alpha-4}-(3-methylbutanoyl)-N{epsilon-7}-[2-(2-{2-[2-(2-{2-[(4S)-4-carboxy-4-(17-carboxyheptadecanamido)butanamido]ethoxy}ethoxy)acetamido]ethoxy}ethoxy)acetamido]-[4A,7K,9E,13E,18Q,22V,28Y,30W,31L]hPYY (4-36)]", "values": [{"measurement": "Ki", "setting": "[1]", "value": 3.09, "unit": "nM"}, {"measurement": "EC50", "setting": "human NPY1 receptor", "value": "> 5000", "unit": "nM"}, {"measurement": "EC50", "setting": "human NPY4 receptor", "value": "> 5000", "unit": "nM"}, {"measurement": "Acute Food Intake 24 h [% vehicle]", "setting": "normal NMRI mice", "value": 55, "unit": "% vehicle"}, {"measurement": "EC50", "setting": "human NPY2 receptor", "value": 0.106, "unit": "nM"}, {"measurement": "EC50", "setting": "human NPY5 receptor", "value": "> 5000", "unit": "nM"}]}
